Test results published in ChEMBL document CHEMBL4190175 (Medchemcomm, 2016).
In brackets after ≈: the same amount, converted by molar mass.

Tests used:
[1] = Antagonist activity at pig TRPA1 by electrophysiology assay; parameters: species or system Sus scrofa
Salmonella typhimurium = assay: Genotoxicity in Salmonella typhimurium by Ames test; assay type: toxicity, organism-based; details: salmonella enterica subsp. enterica serovar typhimurium
[2] = Stability in rat liver microsomes; assay type: ADME, microsome; details: read-out: Stability
[3] = Permeability in Sprague-Dawley rat skin at 0.68 mg applied topically measured after 24 hrs; assay type: ADME, tissue-based, Zone of skin; details: in vivo, topical_or_ocular
[4] = biological target: Transient receptor potential cation channel subfamily A member 1 (Rattus norvegicus, UniProt Q6RI86); assay: Antagonist activity at rat TRPA1 by electrophysiology assay
Chain of Transient receptor potential cation channel subfamily A member 1 (Rattus norvegicus, UniProt Q6RI86) (Q6RI86 whole entry): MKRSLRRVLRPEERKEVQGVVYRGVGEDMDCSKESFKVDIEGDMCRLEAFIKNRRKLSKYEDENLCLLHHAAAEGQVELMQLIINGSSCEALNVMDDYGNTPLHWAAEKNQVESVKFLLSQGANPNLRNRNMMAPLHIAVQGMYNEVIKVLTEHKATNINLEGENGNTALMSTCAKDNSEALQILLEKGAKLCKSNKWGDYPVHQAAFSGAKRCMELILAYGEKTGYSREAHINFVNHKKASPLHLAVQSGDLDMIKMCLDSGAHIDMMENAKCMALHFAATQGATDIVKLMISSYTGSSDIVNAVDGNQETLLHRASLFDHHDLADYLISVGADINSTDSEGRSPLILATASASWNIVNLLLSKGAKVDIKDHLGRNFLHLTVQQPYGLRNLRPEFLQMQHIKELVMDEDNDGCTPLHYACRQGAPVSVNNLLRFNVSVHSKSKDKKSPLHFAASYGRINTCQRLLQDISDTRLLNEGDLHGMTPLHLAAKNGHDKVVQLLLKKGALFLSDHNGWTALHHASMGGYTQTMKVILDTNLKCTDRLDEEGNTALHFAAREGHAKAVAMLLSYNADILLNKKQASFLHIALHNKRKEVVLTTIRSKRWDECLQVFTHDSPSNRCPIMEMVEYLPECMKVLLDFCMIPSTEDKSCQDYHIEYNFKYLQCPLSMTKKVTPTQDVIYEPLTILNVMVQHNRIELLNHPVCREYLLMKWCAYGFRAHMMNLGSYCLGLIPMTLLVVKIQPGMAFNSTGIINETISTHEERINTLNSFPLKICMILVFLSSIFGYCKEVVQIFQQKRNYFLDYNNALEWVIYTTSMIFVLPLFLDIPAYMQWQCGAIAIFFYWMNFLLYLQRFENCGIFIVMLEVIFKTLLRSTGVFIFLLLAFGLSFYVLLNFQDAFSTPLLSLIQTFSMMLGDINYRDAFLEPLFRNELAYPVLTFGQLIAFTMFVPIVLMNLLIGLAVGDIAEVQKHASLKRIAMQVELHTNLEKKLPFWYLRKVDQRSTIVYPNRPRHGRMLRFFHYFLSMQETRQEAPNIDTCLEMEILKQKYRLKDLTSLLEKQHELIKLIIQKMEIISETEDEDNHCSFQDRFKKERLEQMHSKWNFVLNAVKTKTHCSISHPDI

[5] = biological target: Potassium voltage-gated channel subfamily A member 5 (Homo sapiens) (UniProt P22460); assay: Inhibition of Kv1.5 (unknown origin)
Chain of Potassium voltage-gated channel subfamily A member 5 (Homo sapiens) (P22460 whole entry): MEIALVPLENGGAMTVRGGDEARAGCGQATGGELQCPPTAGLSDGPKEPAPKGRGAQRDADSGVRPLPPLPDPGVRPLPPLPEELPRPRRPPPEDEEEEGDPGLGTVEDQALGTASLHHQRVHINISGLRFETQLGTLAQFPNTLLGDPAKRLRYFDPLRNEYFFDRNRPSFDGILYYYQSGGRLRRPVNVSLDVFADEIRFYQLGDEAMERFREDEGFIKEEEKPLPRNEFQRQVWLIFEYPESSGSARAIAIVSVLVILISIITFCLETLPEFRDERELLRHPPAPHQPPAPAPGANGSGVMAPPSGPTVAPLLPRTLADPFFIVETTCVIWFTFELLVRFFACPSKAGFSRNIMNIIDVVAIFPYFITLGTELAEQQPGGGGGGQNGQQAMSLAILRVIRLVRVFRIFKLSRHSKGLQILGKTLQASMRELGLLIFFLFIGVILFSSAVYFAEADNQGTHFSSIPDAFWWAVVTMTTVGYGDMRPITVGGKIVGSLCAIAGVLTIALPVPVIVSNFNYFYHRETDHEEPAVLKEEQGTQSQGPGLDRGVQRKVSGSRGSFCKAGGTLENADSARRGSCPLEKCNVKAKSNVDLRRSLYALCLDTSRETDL

[6] = biological target: Transient receptor potential cation channel subfamily A member 1 (Homo sapiens, UniProt O75762); assay: Antagonist activity at full length human TRPA1 at holding potential of 15 mV measured after 1 min by PatchXpress electrophysiology assay
Chain of Transient receptor potential cation channel subfamily A member 1 (Homo sapiens, UniProt O75762) (O75762 whole entry): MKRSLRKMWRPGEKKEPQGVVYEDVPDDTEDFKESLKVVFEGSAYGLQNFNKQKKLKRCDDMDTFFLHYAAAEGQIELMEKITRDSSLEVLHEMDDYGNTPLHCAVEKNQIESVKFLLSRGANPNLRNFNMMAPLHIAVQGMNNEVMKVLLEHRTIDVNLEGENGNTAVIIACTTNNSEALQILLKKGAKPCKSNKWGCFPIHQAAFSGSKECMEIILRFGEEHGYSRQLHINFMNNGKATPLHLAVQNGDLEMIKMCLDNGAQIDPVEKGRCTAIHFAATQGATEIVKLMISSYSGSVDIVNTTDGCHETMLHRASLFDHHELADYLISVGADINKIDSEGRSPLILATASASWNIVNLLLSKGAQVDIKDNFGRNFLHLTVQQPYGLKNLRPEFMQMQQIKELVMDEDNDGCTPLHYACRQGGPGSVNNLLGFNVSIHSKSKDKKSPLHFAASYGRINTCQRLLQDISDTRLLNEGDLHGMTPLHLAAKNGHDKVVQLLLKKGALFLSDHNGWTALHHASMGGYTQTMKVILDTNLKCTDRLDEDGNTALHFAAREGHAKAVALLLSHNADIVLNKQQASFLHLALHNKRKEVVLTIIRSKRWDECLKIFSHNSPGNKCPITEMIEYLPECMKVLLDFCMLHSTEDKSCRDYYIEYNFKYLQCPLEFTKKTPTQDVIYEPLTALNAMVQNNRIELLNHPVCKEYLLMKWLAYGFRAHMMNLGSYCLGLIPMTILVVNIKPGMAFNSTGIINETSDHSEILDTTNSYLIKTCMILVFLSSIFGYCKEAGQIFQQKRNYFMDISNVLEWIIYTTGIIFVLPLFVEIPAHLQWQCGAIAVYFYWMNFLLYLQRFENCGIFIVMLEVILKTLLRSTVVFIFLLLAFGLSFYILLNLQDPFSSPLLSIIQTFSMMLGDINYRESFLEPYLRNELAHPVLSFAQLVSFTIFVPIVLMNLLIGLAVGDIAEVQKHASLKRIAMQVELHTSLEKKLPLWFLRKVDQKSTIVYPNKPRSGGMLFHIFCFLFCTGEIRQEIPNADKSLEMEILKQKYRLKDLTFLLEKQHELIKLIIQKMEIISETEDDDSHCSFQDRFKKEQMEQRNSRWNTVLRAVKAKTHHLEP

[7] = Thermodynamic solubility of the compound; assay type: physicochemical; details: read-out: Therm_solubility
[8] = biological target: Voltage-gated inwardly rectifying potassium channel KCNH2 (Homo sapiens, UniProt Q12809); assay: Inhibition of human ERG
Chain of Voltage-gated inwardly rectifying potassium channel KCNH2 (Q12809 whole entry): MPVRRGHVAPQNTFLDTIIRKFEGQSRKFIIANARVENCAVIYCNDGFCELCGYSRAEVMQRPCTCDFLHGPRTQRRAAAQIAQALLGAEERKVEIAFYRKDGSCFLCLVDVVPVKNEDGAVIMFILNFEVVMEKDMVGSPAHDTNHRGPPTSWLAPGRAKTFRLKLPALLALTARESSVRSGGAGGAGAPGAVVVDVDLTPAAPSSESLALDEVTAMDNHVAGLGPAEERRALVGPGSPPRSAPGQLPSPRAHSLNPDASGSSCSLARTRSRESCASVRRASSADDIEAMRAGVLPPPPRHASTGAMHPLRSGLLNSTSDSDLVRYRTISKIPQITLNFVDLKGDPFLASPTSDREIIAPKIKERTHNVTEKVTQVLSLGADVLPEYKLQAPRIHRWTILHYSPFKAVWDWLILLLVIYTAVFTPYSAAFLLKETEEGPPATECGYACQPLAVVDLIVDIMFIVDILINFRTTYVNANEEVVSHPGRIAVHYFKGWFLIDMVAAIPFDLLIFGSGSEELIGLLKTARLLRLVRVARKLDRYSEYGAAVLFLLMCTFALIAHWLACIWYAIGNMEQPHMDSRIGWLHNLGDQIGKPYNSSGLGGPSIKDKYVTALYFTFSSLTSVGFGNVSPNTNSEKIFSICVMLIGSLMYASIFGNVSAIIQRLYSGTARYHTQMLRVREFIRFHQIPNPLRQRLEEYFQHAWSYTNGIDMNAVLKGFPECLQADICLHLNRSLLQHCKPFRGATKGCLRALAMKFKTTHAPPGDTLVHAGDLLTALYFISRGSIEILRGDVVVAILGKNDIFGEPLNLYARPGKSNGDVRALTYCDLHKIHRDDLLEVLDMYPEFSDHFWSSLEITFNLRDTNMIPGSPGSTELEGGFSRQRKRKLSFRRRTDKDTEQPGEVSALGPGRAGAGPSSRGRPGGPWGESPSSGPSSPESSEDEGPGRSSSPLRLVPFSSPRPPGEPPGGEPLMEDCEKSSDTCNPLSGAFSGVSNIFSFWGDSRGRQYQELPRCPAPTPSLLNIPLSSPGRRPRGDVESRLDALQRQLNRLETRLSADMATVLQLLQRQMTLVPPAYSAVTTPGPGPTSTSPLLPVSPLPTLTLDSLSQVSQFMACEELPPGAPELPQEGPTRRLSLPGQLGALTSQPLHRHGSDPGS

[9] = Antagonist activity at full length opossum TRPA1 at holding potential of 15 mV measured after 1 min by PatchXpress electrophysiology assay; parameters: species or system Monodelphis domestica
[10] = Clearance in rat; assay type: ADME, organism-based; details: in vivo
[11] = Oral bioavailability in rat; assay type: ADME, organism-based; details: in vivo
Cytochrome P450 3A4 = Cytochrome P450 3A4 (Homo sapiens, UniProt P08684); assay: Inhibition of CYP3A4 (unknown origin); assay type: ADME
Chain of Cytochrome P450 3A4 (P08684 whole entry): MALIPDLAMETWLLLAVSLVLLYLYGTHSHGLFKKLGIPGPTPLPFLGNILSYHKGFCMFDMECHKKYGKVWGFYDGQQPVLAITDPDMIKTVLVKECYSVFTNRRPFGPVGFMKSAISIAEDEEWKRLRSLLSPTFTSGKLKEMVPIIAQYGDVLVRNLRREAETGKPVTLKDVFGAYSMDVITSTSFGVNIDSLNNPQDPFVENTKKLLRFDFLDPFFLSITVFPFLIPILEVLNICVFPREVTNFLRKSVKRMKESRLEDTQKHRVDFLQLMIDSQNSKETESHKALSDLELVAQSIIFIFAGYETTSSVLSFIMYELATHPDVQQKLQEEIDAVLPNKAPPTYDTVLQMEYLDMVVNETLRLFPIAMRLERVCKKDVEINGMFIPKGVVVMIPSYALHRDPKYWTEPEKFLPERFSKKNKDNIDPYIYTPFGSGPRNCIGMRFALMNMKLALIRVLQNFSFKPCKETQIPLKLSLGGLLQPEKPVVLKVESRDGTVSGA

[12] = Fraction unbound in dog plasma; assay type: ADME, cell-free, Canis lupus familiaris
[13] = Fraction unbound in human plasma; assay type: ADME, cell-free
[14] = Dissociation constant, pKa of the compound; assay type: physicochemical
[15] = Stability in rat plasma; assay type: ADME, cell-free; details: read-out: Stability
[16] = Half life in rat; assay type: ADME, organism-based; details: in vivo
[17] = Inhibition of GABA-A (unknown origin); parameters: species or system Homo sapiens
[18] = Fraction unbound in rat plasma; assay type: ADME, cell-free

IC50 [1]: 65 nM
microsomal CLint [2]: 524 µL/min/mg
permeability [3]: 0.1 ×10⁻⁵ cm/hr
IC50 [4]: 3 nM
INH [5]: > 3000 nM
IC50 [6]: 0.72 to 8 nM
solubility thermodynamic [7]: 0.6 µg/mL (≈ 1.18 µM)
IC50 [9]: ≥ 3000 nM
clearance [10]: 42 mL/min/kg
bioavailability [11]: 5%
IC50 (Cytochrome P450 3A4): 2160 nM
fraction unbound [12]: 0.0008
fraction unbound [13]: 0.0011
pKa [14]: 5.9
half-life [15]: > 6 h
half-life [16]: 4.4 h
IC50 [17]: 2300 nM
fraction unbound [18]: 0.00057
Compound: O=C(NC[C@@H](Cc1ccccc1)N1CCC(O)(C(F)(F)F)CC1)C1(c2ccc(Cl)cc2)CCCC1
Activity (Salmonella typhimurium): Non-Toxic
IC50 [8]: > 3000 nM
